{"source": "patent US4252804A", "about": "“Therapeutically useful 3,4,5-trimethoxybenzene derivatives” (Metabio-Joullie, priority 1977, dated 1981)", "assay_type_in_all_cases": "in vivo", "key": {"[1]": {"system": "convulsant effects of electric shock", "assay": "Action against the convulsant effects of electric shock in the mouse", "conditions": "po, 0.5 h, 30 minutes before shock, 13 to 16 mA for 0.1 sec, read-out: Percentage protection against the convulsant effects of the electric shock; for responders at 500 mg/kg: 500 mg/kg p.o.", "method": "(§1) 2.3--Test on the action against the convulsant effects of electric shock and of strychnine in the mouse\n(§2) 30 minutes after administration of the compounds to groups of 10 animals, there is investigated the protection induced against:\ntonic crisis (extension of rear feet) provoked by supramaximal transcranial electric stimulation (13 to 16 mA for 0.1 sec).\n(§3) The results are expressed as a percentage of protection based on a control group which have only received the administration vehicle for the compounds."}, "[2]": {"system": "spontaneous motor activity", "assay": "Action on spontaneous motor activity in the mouse (BOISSIER)", "conditions": "po, 0.5 h, 30 minutes after administration, vs control, read-out: Percentage variation in motor activity; for change in vivo at 500 mg/kg: 500 mg/kg p.o.", "method": "2.1--Action on spontaneous motor activity in the mouse\n30 minutes after administration per os of the test compounds, the mice (groups of 12 animals) are installed in individual cages in a BOISSIER activity measuring cupboard and move about before two photoelectric cells placed according to the rectangular coordinates. Meters register the movement during 20 minutes."}, "[3]": {"system": "convulsant effects of strychnine", "assay": "Action against the convulsant effects of strychnine in the mouse", "conditions": "30 minutes before strychnine 1.5 mg/kg s.c.", "method": "as §1, §2\nconvulsive crisis and death provoked by injection of strychnine at a limiting lethal dose of 1.5 mg/kg s.c.\nas §3"}, "[4]": {"assay": "Acute toxicity for oral administration in mice", "conditions": "mouse, in vivo, suspension in 10% gum arabic", "method": "(§4) 1--ACUTE TOXICITY FOR ORAL ADMINISTRATION IN MICE\n(§5) The compounds are administered orally in increasing doses in suspension in a 10% gum arabic solution to groups of 5 .female. mice of mean weight 25 g. The 50% lethal doses (LD 50) are calculated by the method of KARBER and BEHRENS (Arch. Exp. Path. Pharmakol. 1935, 177, 379-388).\n(§6) The LD 50's found are summarised in Table IV below and indicate that the tested compounds have low toxicity."}, "[5]": {"system": "pentobarbital hypnosis time", "assay": "Action on the pentobarbital hypnosis time in the mouse", "conditions": "po, 0.5 h, 30 minutes before pentobarbital 50 mg/kg i.v., vs control, read-out: Percentage variation in pentobarbital hypnosis time", "description": "2.2--Action on the pentobarbital hypnosis time in the mouse\nThe hypnosis time of each mouse is counted in minutes from the moment when the animal may be placed without resistance on its back until that when it spontaneously gets back on its feet."}, "mice": {"system": "mice", "assay": "Acute toxicity for oral administration in mice", "conditions": "suspension in 10% gum arabic", "method": "as §4, §5, §6"}}, "data": [{"smiles": "COc1cc(NC(=O)N2CCOCC2)cc(OC)c1OC", "note": "[compound 733]", "values": [{"measurement": "responders at 400 mg/kg", "setting": "[1]; 400 mg/kg p.o.", "value": 30, "unit": "%"}, {"measurement": "change in vivo at 400 mg/kg", "setting": "[2]; 400 mg/kg p.o.", "value": -74, "unit": "%"}, {"measurement": "Percentage protection against the convulsant effects of strychnine", "setting": "[3]; 400 mg/kg p.o.", "value": 100, "unit": "%"}, {"measurement": "LD50", "setting": "[4]; po", "value": 4000, "unit": "mg/kg"}, {"measurement": "change in vivo at 400 mg/kg", "setting": "[5]; 400 mg/kg p.o.", "value": 164, "unit": "%"}]}, {"smiles": "COc1cc(OC(=O)N2CCOCC2)cc(OC)c1OC", "note": "[compound 754]", "values": [{"measurement": "responders at 500 mg/kg", "setting": "[1]", "value": 90, "unit": "%"}, {"measurement": "change in vivo at 500 mg/kg", "setting": "[2]", "value": -41, "unit": "%"}, {"measurement": "Percentage protection against the convulsant effects of strychnine", "setting": "[3]; 500 mg/kg p.o.", "value": 100, "unit": "%"}, {"measurement": "LD50", "setting": "[4]", "value": 5000, "unit": "mg/kg"}, {"measurement": "change in vivo at 500 mg/kg", "setting": "[5]; 500 mg/kg p.o.", "value": 178, "unit": "%"}]}, {"smiles": "COc1cc(NC(=O)N2CCCCC2)cc(OC)c1OC", "note": "[compound 776]", "values": [{"measurement": "change in vivo at 375 mg/kg", "setting": "[2]; 375 mg/kg p.o.", "value": -48, "unit": "%"}, {"measurement": "Percentage protection against the convulsant effects of strychnine", "setting": "[3]; 375 mg/kg p.o.", "value": 44, "unit": "%"}, {"measurement": "LD50", "setting": "[4]; po", "value": 3750, "unit": "mg/kg"}, {"measurement": "change in vivo at 375 mg/kg", "setting": "[5]; 375 mg/kg p.o.", "value": 130, "unit": "%"}]}, {"smiles": "COc1cc(NC(=O)N(C)C2CCCC2)cc(OC)c1OC", "note": "[compound 801]", "values": [{"measurement": "responders at 250 mg/kg", "setting": "[1]; 250 mg/kg p.o.", "value": 37, "unit": "%"}, {"measurement": "change in vivo at 250 mg/kg", "setting": "[2]; 250 mg/kg p.o.", "value": -29, "unit": "%"}, {"measurement": "Percentage protection against the convulsant effects of strychnine", "setting": "[3]; 250 mg/kg p.o.", "value": 100, "unit": "%"}, {"measurement": "LD50", "setting": "[4]; po", "value": 2500, "unit": "mg/kg"}, {"measurement": "change in vivo at 250 mg/kg", "setting": "[5]; 250 mg/kg p.o.", "value": 70, "unit": "%"}]}, {"smiles": "COc1cc(NC(=O)N2CC=CCC2)cc(OC)c1OC", "note": "[compound 819]", "values": [{"measurement": "responders at 500 mg/kg", "setting": "[1]", "value": 40, "unit": "%"}, {"measurement": "change in vivo at 500 mg/kg", "setting": "[2]", "value": -18, "unit": "%"}, {"measurement": "Percentage protection against the convulsant effects of strychnine", "setting": "[3]; 500 mg/kg p.o.", "value": 70, "unit": "%"}, {"measurement": "LD50", "setting": "[4]; po", "value": 5000, "unit": "mg/kg"}]}, {"smiles": "COc1cc(NC(=O)CN2CCOCC2)cc(OC)c1OC", "note": "[compound 833]", "values": [{"measurement": "LD50", "setting": "mice", "value": 3000, "unit": "mg/kg"}]}]}
